The text below walks through data of ChEMBL document CHEMBL1150879, “Synthesis of (+/-)-cassumunins A and B, new curcuminoid antioxidants having protective activity of the living cell against oxidative damage” (J Nat Prod, 1998).

As a reminder, the IC50 is the point on the concentration scale where inhibition reaches its midpoint.

The experiment concerns Thymocyte. The experiment is described as follows: Inhibition of H2O2-induced cell death of rat thymocyte assessed as cell viability. It counts as functional, cell-based.

For `COc1cc(/C=C/C(=O)CC(=O)/C=C/c2cc(OC)c(O)c(C(C)/C=C/c3cc(OC)c(OC)cc3OC)c2)ccc1O` (stereo not drawn) [CASSUMUNIN B], the IC50 turned out to be 220 nM.
Regarding `COc1cc(/C=C/C(=O)CC(=O)/C=C/c2ccc(O)c(OC)c2)ccc1O` [CURCUMIN], the IC50 worked out at 1020 nM.
In the case of `COc1cc(/C=C/C(=O)CC(=O)/C=C/c2cc(OC)c(O)c(C(C)/C=C/c3ccc(OC)c(OC)c3)c2)ccc1O` (stereo not drawn) [CASSUMUNIN A], the IC50 turned out to be 170 nM.
